Our source for the solubility in water and water solubility values is US20240382597A1, “FORMULATIONS OF ANTI-INFLAMMATORY AGENTS COMPRISING MSM WITH ENHANCED SOLUBILITY IN WATER” (LIVIONEX, Inc., priority 2021, published 2024).

Data set [1] can be described thus: solubility in water of anti-inflammatory agents, alone and in formulations comprising MSM. The format is physicochemical. From the text: The increases in solubility in water of certain representative anti-inflammatory agents in formulations comprising MSM (about 5.4% w/w; range between 0.1 wt. % to about 15 wt. %, typically around 5%) are as follows: […]
For data set [2] the following is noted: at 79° F.; cited from earlier work.
Setting [3] is: in formulations comprising MSM (about 5.4% w/w; range 0.1 wt. % to about 15 wt. %).
Setting [4] is: without MSM (starting value of the increase).

Take `C[C@@H]1C[C@H]2[C@@H]3CCC4=CC(=O)C=C[C@]4(C)[C@@]3(F)[C@@H](O)C[C@]2(C)[C@@]1(O)C(=O)CO` [Dexamethsone, dexamethasone]: the solubility in water in data set [1] (setting [3]) is listed as ~250 mg per ml of water; in data set [1] (setting [4]), “insoluble”.

Take `O=C(O)Cc1ccccc1Nc1c(Cl)cccc1Cl` [Diclofenac, diclofenac]: the results for the solubility in water in data set [1] (setting [3]) and in data set [1] (setting [4]) were 50 mg per ml of water and 0.004 mg per ml of water, respectively. Turning to `CC(C)Cc1ccc(C(C)C(=O)O)cc1` (stereo not drawn) [Ibuprofen, ibuprofen], the figures for the solubility in water in data set [1] (setting [3]) and in data set [1] (setting [4]) were ~150 mg per ml of water and “insoluble”, respectively. On to `CS(C)(=O)=O` [MSM, methylsulfonylmethane], for which the water solubility in data set [2] is 34 % w/v. On to `COC(=O)c1ccccc1O` [Methyl salicylate, methyl salicylate], for which the solubility in water in data set [1] (setting [3]) is on record as 0.013 mg per ml of water; in data set [1] (setting [4]), 0.00065 mg per ml of water.
